Assay results reported in patent EP3498298A1, “THE USE OF SGC STIMULATORS AND SGC ACTIVATORS ALONE OR IN COMBINATION WITH PDE5 INHIBITORS FOR THE TREATMENT OF BONE DISORDERS INCLUDING OSTEOGENESIS IMPERFECTA (OI)” (Bayer AG, priority 2017, dated 2019).

How the values were obtained:
mice = conditions: cited from earlier work
wild-type mice (WT) = assay: 16 week chronic treatment study, micro-CT of femora (bone morphology and architecture) in wild-type mice; assay type: in vivo; conditions: 300 ppm (300mg/kg chow), 16 weeks
Description: (§1) Preferentially mice were used, especially transgenic mice (B6C3Fe a/a-Col1a2 oim /J (Jackson Laboratories)) (Chipman et al. 1993, McBride et al. 1998). These so called OI-mice (OIM, also called HOM mice) carry a mutation in the collagen gen (Col1a2) which reflects the phenotype and clinical situation of patients with […] OI. For the treatment homozygous OIM are used and compared with WT mice which serve as control.
(§2) As read-outs were preferentially used: • semiquantitative RT/PCR (TaqMan PCR) to assess gene expression according to standard procedures • histopathology to assess bone morphology according to standard procedures • high-resolution micro-CTscanner (µCT 35; Scanco Medical AG, Briittisellen, Switzerland) to evaluate bone morphology and architecture (Micro-CT) • three-point bending test to assess mechanical properties of the femora (Mechanical testing)
(§3) A high-resolution micro-CTscanner (µCT 35; Scanco Medical AG, Briittisellen, Switzerland) was used to evaluate bone morphology and architecture. […] The trabecular and cortical parameters were determined according to the guidelines for the assessment of bone microstructure with micro-CT (Bouxsein et al., 2010). […]

[1] = test system: B6C3Fe a/a-Col1a2 oim /J (OI mice) termed as HOM; assay: 16 week chronic treatment study, micro-CT of femora (bone morphology and architecture) in OI mice; assay type: in vivo; conditions: 300 ppm (300mg/kg chow), 16 weeks; treated female HOM mice compared to untreated female HOM mice; P < 0.05
Description: as §1, §2, §3

[2] = test system: ovariectomized female mice; conditions: intraperitoneally, 10µg/kg bolus dose; cited from earlier work

CCCc1nn(C)c2c(=O)[nH]c(-c3cc(S(=O)(=O)N4CCN(C)CC4)ccc3OCC)nc12 [sildenafil, 3-[2-ethoxy-5-(4-methylpiperazin-1-yl)sulfonyl-phenyl]-7-methy1-9-propy1-2,4,7,8-tetrazabicyclo [4.3.0]nona-3,8,10-trien-5-one]
fracture healing (mice): accelerates fracture healing

Nc1nc(-c2nn(Cc3ccccc3F)c3ncccc23)ncc1C1CC1 [BAY 41-2272, 3-(4-amino-5-cyclopropylpyrimidin-2-yl)-1-(2-fluorobenzyl)-1H-pyrazolo[3,4-b]pyridine]
structural properties of both trabecular and cortical bone (wild-type mice (WT)): no effect
trabecular number (Tb.N) [1]: increased
trabecular separation (Tb.Sp) [1]: decreased

O=C(O)CCCCN(CCc1ccccc1OCc1ccc(CCc2ccccc2)cc1)Cc1ccc(C(=O)O)cc1 [cinaciguat]
bone density [2]: could increase bone density
